Assay results published in ChEMBL document CHEMBL1124583, “New anticancer agents: chiral isomers of ethyl 5-amino-1,2-dihydro-2-methyl-3-phenylpyrido[3,4-b]pyrazine-7-car bamate ” (J Med Chem, 1989).

How the values were obtained:
L1210 [1] = experiment: Inhibitory activity against lymphoid leukemia L1210 cells; format: functional, cell-based; conditions: Mus musculus
L1210 [2] = experiment: Mitotic index (fraction of cells in mitosis divided by total cells) in cultured lymphoid leukemia L1210 cells; format: functional, Mus musculus
P388 [3] = experiment: Increase in the life span of mice with P388 leukemia after the administration of the highest non toxic dose (30 mg/kg); format: functional; conditions: Mus musculus
P388 [4] = experiment: Increase in the life span of mice with P388 leukemia after the administration of the highest non toxic dose (1 mg/kg); format: functional; conditions: Mus musculus
P388 [5] = experiment: Increase in the life span of mice with P388 leukemia after the administration of the highest non toxic dose (0.5 mg/kg); format: functional, Mus musculus
P388 [6] = experiment: Increase in the life span of mice with P388 leukemia after the administration of the highest non toxic dose (2 mg/kg); format: functional, Mus musculus

| SMILES | IC50 (L1210 [1]) [nM] | MI0.5 (L1210 [2]) [nM] | ILS at 30 mg/kg (P388 [3]) [%] | ILS at 1 mg/kg (P388 [4]) [%] | Increase (P388 [5]) [%] | Increase (P388 [6]) [%] |
| --- | --- | --- | --- | --- | --- | --- |
| CCOC(=O)Nc1cc2c(c(N)n1)N=C(c1ccccc1)[C@@H](C)N2 | 17 | 27 | 88 |  |  |  |
| CCOC(=O)Nc1cc2c(c(N)n1)N=C(c1ccccc1)C(C)N2 (configuration not stated) | 0.2 | 0.58 |  | 71 |  |  |
| CCOC(=O)Nc1cc2c(c(N)n1)N=C(c1ccccc1)[C@H](C)N2 [MIVOBULIN] | 0.094 | 0.14 |  |  | 64 |  |
| CCOC(=O)Nc1cc2c(c(N)n1)N=C(c1ccccc1)CN2 | 4.7 | 2.8 |  |  |  | 51 |
